Results published in patent publication US20240254129A1, “HETEROCYCLIC COMPOUNDS AND USES THEREOF” (Kumquat Biosciences Inc., priority 2021, published 2024).

Legend:
[1] = target: GST-tagged K-Ras mutant / His-tagged hSOS1 (Homo sapiens, UniProt P01116); assay: HTRF assay, K-Ras mutant / SOS1 interaction; type: binding; settings: compound nos. 401-703; read-out: IC50 against mutant Kras
Summary of the method: (§1)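 Inhibition of wildtype or mutant K-Ras binding to hSOS1 is measured by FRET between antibody-bound Eu donor and XL665 acceptor. Protein levels are matched to the IC50 range under study. The 665/620 nm signal after ≥10 min yields IC50.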

[2] = target: T1, wildtype Kras / hSOS1 (Homo sapiens, UniProt P01116); assay: HTRF assay, wildtype Kras / SOS1 interaction; type: binding; settings: compound nos. 401-703; read-out: IC50 against wildtype Kras
T1 construct: made in house; host or cells: E. coli BL21 (DE3)
Summary of the method: as §1

GST-tagged K-Ras mutant / His-tagged hSOS1, sequence (P01116 whole entry G12D, form open): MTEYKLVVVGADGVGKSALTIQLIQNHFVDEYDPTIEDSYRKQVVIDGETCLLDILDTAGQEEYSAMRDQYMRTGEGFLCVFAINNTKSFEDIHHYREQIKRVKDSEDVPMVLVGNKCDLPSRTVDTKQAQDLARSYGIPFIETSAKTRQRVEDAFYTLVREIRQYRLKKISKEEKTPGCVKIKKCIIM
T1 sequence (P01116 1-188 isoform P01116-2): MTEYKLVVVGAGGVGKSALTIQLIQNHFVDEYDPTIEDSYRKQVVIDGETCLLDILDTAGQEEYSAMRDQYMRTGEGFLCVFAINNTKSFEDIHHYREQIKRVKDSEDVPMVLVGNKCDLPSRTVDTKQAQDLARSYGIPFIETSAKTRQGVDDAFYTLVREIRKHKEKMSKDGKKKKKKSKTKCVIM

SMILES | IC50 [1] [nM] | IC50 [2] [nM]
N#Cc1c(N)sc2c(F)ccc(-c3c(Cl)cc4c(N5CC6CCC(C5)N6CC5CC5)nc(OC[C@@]56CCCN5C[C@H](F)C6)nc4c3F)c12 [Compound 500, 2-amino-4-(6-chloro-4-((1R,5S)-8-(cyclopropyl-methyl)-3,8-diazabicyclo-[3.2.1]octan-3-yl)-8-fluoro-2-(((2R,7aS)-2-fluorotetra-hydro-1H-pyrrolizin-7a(5H)-yl)methoxy)quin-azolin-7-yl)-7-fluorobenzo-[b]thiophene-3-carbonitrile] | < 500 | < 500
CN(C)CC1(COc2nc(N3CC4CCC(C3)N4)c3ccc(-c4cc(O)cc5ccccc45)c(F)c3n2)CC1 [Compound 501, 4-(4-(3,8-diazabicyclo-[3.2.1]octan-3-yl)-2-((1-((dimethylamino)methyl)-cyclopropyl)methoxy)-8-fluoroquinazolin-7-yl)naph-thalen-2-ol] | < 500 | > 500
Nc1nc2cc(-c3c(Cl)cc4c(N5CC6CCC(C5)N6)nc(OCC56CCCN5CCC6)nc4c3F)ccc2o1 [Compound 502, 5-(4-(3,8-diazabicyclo-[3.2.1]octan-3-yl)-6-chloro-8-fluoro-2-((tetrahydro-1H-pyrrolizin-7a(5H)-yl)meth-oxy)quinazolin-7-yl)benzo-[d]oxazol-2-amine] | > 500 | > 500
CN(C)C1CN(c2nc(N3CC4CCC(C3)N4)c3cc(Cl)c(-c4ccc(F)c5sc(N)nc45)c(F)c3n2)C1 [Compound 503, 4-(4-(3,8-diazabicyclo-[3.2.1]octan-3-yl)-6-chloro-2-(3-(dimethyl-amino)azetidin-1-yl)-8-fluoroquinazolin-7-yl)-7-fluorobenzo[d]thiazol-2-amine] | > 500 | > 500
N#Cc1c(N)sc2c(F)ccc(-c3c(Cl)cc4c(N5CCC6CCC(C5)N6)nc(OC[C@@]56CCCN5C[C@H](F)C6)nc4c3F)c12 (stereo partly drawn) [Compound 504, 4-(4-(3,9-diazabicyclo-[4.2.1]nonan-3-yl)-6-chloro-8-fluoro-2-(((2R,7aS)-2-fluorotetrahydro-1H-pyrrol-izin-7a(5H)-yl)methoxy)-quin-azolin-7-yl)-2-amino-7-fluorobenzo[b]thiophene-3-carbonitrile] | < 500 | > 500
Cc1ncc(COc2nc(N3CCCCCC3)c3cc(Cl)c(-c4cccc5sc(N)nc45)c(F)c3n2)cn1 [Compound 505, 4-(4-(azepan-1-yl)-6-chloro-8-fluoro-2-((2-methylpyr-imidin-5-yl)methoxy)quin-azolin-7-yl)benzo[d]thiazol-2-amine] | > 500 | > 500
CN1CCC[C@H]1COc1nc(N2CCCCC(O)C2)c2cc(Cl)c(-c3cccc4sc(N)nc34)c(F)c2n1 (stereo partly drawn) [Compound 506, 1-(7-(2-aminobenzo[d]thia-zol-4-yl)-6-chloro-8-fluoro-2-(((S)-1-methylpyrrolidin-2-yl)methoxy)quinazolin-4-yl)azepan-3-ol] | < 500 | > 500
NC(=O)C1COCCN(c2nc(OC[C@@]34CCCN3C[C@H](F)C4)nc3c(F)c(-c4ccc(F)c5sc(N)nc45)c(Cl)cc23)C1 (stereo partly drawn) [Compound 507, 4-(7-(2-amino-7-fluoroben-zo[d]thiazol-4-yl)-6-chloro-8-fluoro-2-(((2R,7aS)-2-fluorotetrahydro-1H-pyrrol-izin-7a(5H)-yl)methoxy)-quinazolin-4-yl)-1,4-oxazepane-6-carboxamide] | < 500 | > 500
C#Cc1c(F)ccc2cc(O)cc(-c3ccc4c(N5CCCC6(CNC6)C5)nc(OC[C@@]56CCCN5C[C@H](F)C6)nc4c3F)c12 [Compound 508, 5-ethynyl-6-fluoro-4-(8-fluoro-2-(((2R,7aS)-2-fluorotetrahydro-1H-pyrrol-izin-7a(5H)-yl)methoxy)-4-(2,6-diazaspiro[3.5]nonan-6-yl)quinazolin-7-yl)naph-thalen-2-ol] | < 500 | > 500
Nc1nc2c(C3CCc4c(nc(OC[C@@]56CCCN5C[C@H](F)C6)nc4N4CCNCC(F)(F)C4)C3)cccc2s1 (stereo partly drawn) [Compound 509, 4-(4-(6,6-difluoro-1,4-diazepan-1-yl)-2-(((2R,7aS)-2-fluorotetrahydro-1H-pyrrolizin-7a(5H)-yl)meth-oxy)-5,6,7,8-tetrahydro-quinazolin-7-yl)benzo[d]-thiazol-2-amine] | > 500 | > 500
Cc1ccc(C#N)cc1-c1c(Cl)cc2c(N3CC4CCC(C3)N4)nc(OCC34CCCN3CCC4)nc2c1F [Compound 510, 3-(4-(3,8-diazabicyclo-[3.2.1]octan-3-yl)-6-chloro-8-fluoro-2-((tetrahydro-1H-pyrrolizin-7a(5H)-yl)meth-oxy)quinazolin-7-yl)-4-methylbenzonitrile] | > 500 | > 500

Other lines, results leading:

IC50 [1] [nM] | IC50 [2] [nM] | SMILES
< 500 | > 500 | Nc1nc2c(-c3c(Cl)cc4c(N5CC6CCC(C5)NC6)nc(OC[C@@]56CCCN5C[C@H](F)C6)nc4c3F)ccc(F)c2s1 (stereo partly drawn) [Compound 511, 4-(4-(3,6-diazabicyclo-[3.2.2]nonan-3-yl)-6-chloro-8-fluoro-2-(((2R,7aS)-2-fluorotetrahydro-1H-pyrrol-izin-7a(5H)-yl)methoxy)-quinazolin-7-yl)-7-fluoro-benzo[d]thiazol-2-amine]
< 500 | > 500 | Nc1nc2c(-c3c(Cl)cc4c(N5CC6CCCC(C5)NC6)nc(OC[C@@]56CCCN5C[C@H](F)C6)nc4c3F)ccc(F)c2s1 (stereo partly drawn) [Compound 512, 4-(4-(3,9-diazabicyclo-[3.3.2]decan-3-yl)-6-chloro-8-fluoro-2-(((2R,7aS)-2-fluorotetrahydro-1H-pyrrol-izin-7a(5H)-yl)methoxy)-quinazolin-7-yl)-7-fluoro-benzo[d]thiazol-2-amine]
< 500 | > 500 | N#CC1COCCN(c2nc(OCC34CCCN3C[C@H](F)C4)nc3c(F)c(-c4ccc(F)c5sc(N)nc45)c(Cl)cc23)C1 (stereo partly drawn) [Compound 513, 4-(7-(2-amino-7-fluoroben-zo[d]thiazol-4-yl)-6-chloro-8-fluoro-2-(((2R)-2-fluoro-tetrahydro-1H-pyrrolizin-7a(5H)-yl)methoxy)quin-azolin-4-yl)-1,4-oxazepane-6-carbonitrile]
> 500 | > 500 | CN(C)C1CN(c2nc(N3CC4CCC(C3)N4)c3cc(CCC#N)c(-c4ccc(F)c5sc(N)nc45)c(F)c3n2)C1 [Compound 516, 3-(7-(2-amino-7-fluoroben-zo[d]thiazol-4-yl)-4-(3,8-diazabicyclo[3.2.1]octan-3-yl)-2-(3-(dimethylamino)-azetidin-1-yl)-8-fluoroquin-azolin-6-yl)propanenitrile]
< 500 | > 500 | Nc1nc2c(-c3c(Cl)cc4c(N5CC6CCC(CO)(C5)N6)nc(OC[C@@]56CCCN5C[C@H](F)C6)nc4c3F)ccc(F)c2s1 (stereo partly drawn) [Compound 518, (3-(7-(2-amino-7-fluoroben-zo-[d]thiazol-4-yl)-6-chloro-8-fluoro-2-(((2R,7aS)-2-fluorotetrahydro-1H-pyrrol-izin-7a(5H)-yl)methoxy)-quinazolin-4-yl)-3,8-diaza-bicyclo[3.2.1]octan-1-yl)-methanol]
> 500 | > 500 | Oc1cc(N2CCc3nc(OCC45CCCN4CCC5)nc(N4C[C@H]5CC[C@@H](C4)N5)c3CC2)c2ccccc2c1 [Compound 521, 4-(4-((1R,5S)-3,8-diazabicyclo[3.2.1]octan-3-yl)-2-((tetrahydro-1H-pyrrolizin-7a(5H)-yl)methoxy)-5,6,8,9-tetrahydro-7H-pyrimido[4,5-d]azepin-7-yl)naphthalen-2-ol]
